From ChEMBL document CHEMBL1629674, “Surveillance of carbapenem-resistant Pseudomonas aeruginosa isolates from Puerto Rican Medical Center Hospitals: dissemination of KPC and IMP-18 beta-lactamases” (2009)
≈ marks a conversion by molar mass, not a printed value.

Experiments:
[1] = tested on: Pseudomonas aeruginosa; assay: Antimicrobial activity against Pseudomonas aeruginosa PS15A with PFGE phenotype 10A obtained from blood of patient by agar dilution method; format: functional
[2] = tested on: Pseudomonas aeruginosa; assay: Antimicrobial activity against Pseudomonas aeruginosa PS12 with PFGE phenotype 7B obtained from sputum of patient by agar dilution method; format: functional
[3] = tested on: Pseudomonas aeruginosa; assay: Antimicrobial activity against Pseudomonas aeruginosa PS43 with PFGE phenotype 2 expressing beta-lactamase KPC-2, OXA-2 obtained from skin of ICU patient by agar dilution method; format: functional
[4] = tested on: Pseudomonas aeruginosa; assay: Antimicrobial activity against OprD overproducing Pseudomonas aeruginosa PAO1 expressing mexA and oprD by agar dilution method; format: functional
[5] = tested on: Pseudomonas aeruginosa; assay: Antimicrobial activity against Pseudomonas aeruginosa PS2 with PFGE phenotype 10B obtained from urine of ICU patient by agar dilution method; format: functional
[6] = tested on: Pseudomonas aeruginosa; assay: Antimicrobial activity against Pseudomonas aeruginosa PS44 with PFGE phenotype 13 expressing beta-lactamase IMP-18 obtained from blood of patient by agar dilution method; format: functional
[7] = tested on: Pseudomonas aeruginosa; assay: Antimicrobial activity against Pseudomonas aeruginosa PS3 with PFGE phenotype 12 obtained from sputum of ICU patient by agar dilution method; format: functional
[8] = tested on: Pseudomonas aeruginosa; assay: Antimicrobial activity against Pseudomonas aeruginosa PS1 with PFGE phenotype 9C negative for blaIMP, blaVIM and blaKPC obtained from sputum of patient by agar dilution method
[9] = tested on: Pseudomonas aeruginosa; assay: Antimicrobial activity against Pseudomonas aeruginosa PS33 with PFGE phenotype 9A obtained from blood of patient by agar dilution method; format: functional
[10] = tested on: Pseudomonas aeruginosa; assay: Antimicrobial activity against Pseudomonas aeruginosa PS9 with PFGE phenotype 3B obtained from sputum of patient by agar dilution method; format: functional
[11] = tested on: Pseudomonas aeruginosa; assay: Antimicrobial activity against Pseudomonas aeruginosa PS22 with PFGE phenotype 3A obtained from urine of patient by agar dilution method; format: functional
[12] = tested on: Pseudomonas aeruginosa; assay: Antimicrobial activity against Pseudomonas aeruginosa PS26 with PFGE phenotype 3A expressing beta-lactamase OXA-2 obtained from sputum of ICU patient by agar dilution method; format: functional
[13] = tested on: Pseudomonas aeruginosa; assay: Antimicrobial activity against Pseudomonas aeruginosa PS14 with PFGE phenotype 10C obtained from sputum of ICU patient by agar dilution method; format: functional
[14] = tested on: Pseudomonas aeruginosa; assay: Antimicrobial activity against Pseudomonas aeruginosa PS36 with PFGE phenotype 11B obtained from urine of patient by agar dilution method; format: functional
[15] = tested on: Pseudomonas aeruginosa; assay: Antimicrobial activity against Pseudomonas aeruginosa PS28 with PFGE phenotype 6 expressing beta-lactamase KPC-5 obtained from skin of patient by agar dilution method; format: functional
[16] = tested on: Pseudomonas aeruginosa; assay: Antimicrobial activity against Pseudomonas aeruginosa PS4 with PFGE phenotype 9B expressing beta-lactamase IMP-18 obtained from sputum of patient by agar dilution method; format: functional
[17] = tested on: Pseudomonas aeruginosa; assay: Antimicrobial activity against Pseudomonas aeruginosa PS11A with PFGE phenotype 7A obtained from sputum of ICU patient by agar dilution method; format: functional
[18] = tested on: Pseudomonas aeruginosa; assay: Antimicrobial activity against Pseudomonas aeruginosa PS20A with PFGE phenotype 11D obtained from skin of patient by agar dilution method; format: functional
[19] = tested on: Pseudomonas aeruginosa; assay: Antimicrobial activity against Pseudomonas aeruginosa PS19A with PFGE phenotype 11C obtained from urine of patient by agar dilution method; format: functional
[20] = tested on: Pseudomonas aeruginosa; assay: Antimicrobial activity against Pseudomonas aeruginosa PS41 with PFGE phenotype 11D obtained from urine of patient by agar dilution method; format: functional
[21] = tested on: Pseudomonas aeruginosa; assay: Antimicrobial activity against Pseudomonas aeruginosa PS6A with PFGE phenotype 11A obtained from sputum of ICU patient by agar dilution method; format: functional
[22] = tested on: Pseudomonas aeruginosa; assay: Antimicrobial activity against Pseudomonas aeruginosa PS25 with PFGE phenotype 1A obtained from sputum of patient by agar dilution method; format: functional
[23] = tested on: Pseudomonas aeruginosa; assay: Antimicrobial activity against Pseudomonas aeruginosa PS29 with PFGE phenotype 11D obtained from sputum of patient by agar dilution method; format: functional
[24] = tested on: Pseudomonas aeruginosa; assay: Antimicrobial activity against Pseudomonas aeruginosa PS34 with PFGE phenotype 4A obtained from blood of ICU patient by agar dilution method; format: functional
[25] = tested on: Pseudomonas aeruginosa; assay: Antimicrobial activity against Pseudomonas aeruginosa PS18A with PFGE phenotype 11D obtained from CSF of ICU patient by agar dilution method; format: functional
[26] = tested on: Pseudomonas aeruginosa; assay: Antimicrobial activity against Pseudomonas aeruginosa PS39 with PFGE phenotype 8 expressing beta-lactamase IMP-18 obtained from urine of patient by agar dilution method; format: functional
[27] = tested on: Pseudomonas aeruginosa; assay: Antimicrobial activity against Pseudomonas aeruginosa PS35 with PFGE phenotype 11A obtained from urine of patient by agar dilution method; format: functional
[28] = tested on: Pseudomonas aeruginosa; assay: Antimicrobial activity against Pseudomonas aeruginosa PS7A with PFGE phenotype 11D obtained from urine of ICU patient by agar dilution method; format: functional
[29] = tested on: Pseudomonas aeruginosa; assay: Antimicrobial activity against Pseudomonas aeruginosa PS21 with PFGE phenotype 11F obtained from skin of patient by agar dilution method; format: functional
[30] = tested on: Pseudomonas aeruginosa; assay: Antimicrobial activity against Pseudomonas aeruginosa PS10 with PFGE phenotype 1A expressing beta-lactamase KPC-2 obtained from blood of patient by agar dilution method; format: functional
[31] = tested on: Pseudomonas aeruginosa; assay: Antimicrobial activity against Pseudomonas aeruginosa PS37 with PFGE phenotype 11D obtained from sputum of patient by agar dilution method; format: functional
[32] = tested on: Pseudomonas aeruginosa; assay: Antimicrobial activity against Pseudomonas aeruginosa PS17B with PFGE phenotype 11D expressing beta-lactamase KPC-2 obtained from blood of ICU patient by agar dilution method; format: functional
[33] = tested on: Pseudomonas aeruginosa; assay: Antimicrobial activity against Pseudomonas aeruginosa PS5 with PFGE phenotype 7A expressing beta-lactamase KPC-2 obtained from sputum of ICU patient by agar dilution method; format: functional
[34] = tested on: Pseudomonas aeruginosa; assay: Antimicrobial activity against Pseudomonas aeruginosa PS13 with PFGE phenotype 11E obtained from sputum of ICU patient by agar dilution method; format: functional
[35] = tested on: Pseudomonas aeruginosa; assay: Antimicrobial activity against Pseudomonas aeruginosa PS30 with PFGE phenotype 11D obtained from sputum of patient by agar dilution method; format: functional
[36] = tested on: Pseudomonas aeruginosa; assay: Antimicrobial activity against Pseudomonas aeruginosa PS40 with PFGE phenotype 5 expressing beta-lactamase KPC-2, OXA-2 obtained from urine of patient by agar dilution method; format: functional
[37] = tested on: Pseudomonas aeruginosa; assay: Antimicrobial activity against Pseudomonas aeruginosa PS31 with PFGE phenotype 11B obtained from skin of patient by agar dilution method; format: functional
[38] = tested on: Pseudomonas aeruginosa; assay: Antimicrobial activity against Pseudomonas aeruginosa PS23 with PFGE phenotype 4A expressing beta-lactamase KPC-2 obtained from blood of patient by agar dilution method; format: functional

SMILES | MIC [1] [µg/mL] | MIC [2] [µg/mL] | MIC [3] [µg/mL] | MIC [4] [µg/mL] | MIC [5] [µg/mL] | MIC [6] [µg/mL] | MIC [7] [µg/mL] | MIC [8] [µg/mL] | MIC [9] [µg/mL] | MIC [10] [µg/mL] | MIC [11] [µg/mL] | MIC [12] [µg/mL] | MIC [13] [µg/mL] | MIC [14] [µg/mL] | MIC [15] [µg/mL] | MIC [16] [µg/mL] | MIC [17] [µg/mL] | MIC [18] [µg/mL] | MIC [19] [µg/mL] | MIC [20] [µg/mL] | other results
C[C@@H](O)[C@H]1C(=O)N2C(C(=O)O)=C(S[C@@H]3CN[C@H](C(=O)N(C)C)C3)[C@H](C)[C@H]12 [MEROPENEM] | 16 (≈ 41.7 µM) | 32 (≈ 83.4 µM) | 32 (≈ 83.4 µM) | 0.5 (≈ 1.3 µM) | 16 (≈ 41.7 µM) | 32 (≈ 83.4 µM) | 8 (≈ 20.9 µM) | 8 (≈ 20.9 µM) | 32 (≈ 83.4 µM) | 16 (≈ 41.7 µM) | 16 (≈ 41.7 µM) | 16 (≈ 41.7 µM) | 16 (≈ 41.7 µM) |  |  |  |  |  |  |  | 
CC(C)(O/N=C(\C(=O)N[C@@H]1C(=O)N2C(C(=O)[O-])=C(C[n+]3ccccc3)CS[C@H]12)c1csc(N)n1)C(=O)O [CEFTAZIDIME] | 128 (≈ 234 µM) | 64 (≈ 117 µM) | 16 (≈ 29.3 µM) | 1 (≈ 1.83 µM) | 128 (≈ 234 µM) | > 128 | 4 (≈ 7.32 µM) | 2 (≈ 3.66 µM) | > 128 | 8 (≈ 14.6 µM) | 16 (≈ 29.3 µM) | 8 (≈ 14.6 µM) | 64 (≈ 117 µM) | 64 (≈ 117 µM) | 128 (≈ 234 µM) | > 128 | 32 (≈ 58.5 µM) | 64 (≈ 117 µM) | 64 (≈ 117 µM) | 64 (≈ 117 µM) | MIC [21]: 32 µg/mL (≈ 58.5 µM); MIC [22]: 64 µg/mL (≈ 117 µM); MIC [23]: 64 µg/mL (≈ 117 µM); MIC [24]: 64 µg/mL (≈ 117 µM); MIC [25]: 32 µg/mL (≈ 58.5 µM); MIC [26]: > 128 µg/mL; MIC [27]: 64 µg/mL (≈ 117 µM); MIC [28]: 64 µg/mL (≈ 117 µM); MIC [29]: 64 µg/mL (≈ 117 µM); MIC [30]: 64 µg/mL (≈ 117 µM); MIC [31]: 64 µg/mL (≈ 117 µM); MIC [32]: 64 µg/mL (≈ 117 µM); MIC [33]: 64 µg/mL (≈ 117 µM); MIC [34]: 64 µg/mL (≈ 117 µM); MIC [35]: 64 µg/mL (≈ 117 µM); MIC [36]: 32 µg/mL (≈ 58.5 µM); MIC [37]: 64 µg/mL (≈ 117 µM); MIC [38]: 128 µg/mL (≈ 234 µM)
C[C@@H](O)[C@H]1C(=O)N2C(C(=O)O)=C(SCCNC=N)C[C@H]12 [IMIPENEM ANHYDROUS] | 32 (≈ 107 µM) | > 64 | 16 (≈ 53.4 µM) | 1 (≈ 3.34 µM) | 64 (≈ 214 µM) | 64 (≈ 214 µM) | 16 (≈ 53.4 µM) | 16 (≈ 53.4 µM) | 64 (≈ 214 µM) | 8 (≈ 26.7 µM) | 8 (≈ 26.7 µM) | 8 (≈ 26.7 µM) | 64 (≈ 214 µM) | > 64 | > 64 | > 64 | > 64 | > 64 | > 64 | > 64 | MIC [21]: > 64 µg/mL; MIC [22]: > 64 µg/mL; MIC [23]: > 64 µg/mL; MIC [24]: > 64 µg/mL; MIC [25]: > 64 µg/mL; MIC [26]: > 64 µg/mL; MIC [27]: > 64 µg/mL; MIC [28]: > 64 µg/mL; MIC [29]: > 64 µg/mL; MIC [30]: > 64 µg/mL; MIC [31]: > 64 µg/mL; MIC [32]: > 64 µg/mL; MIC [33]: > 64 µg/mL; MIC [34]: > 64 µg/mL; MIC [35]: > 64 µg/mL; MIC [36]: > 64 µg/mL; MIC [37]: > 64 µg/mL; MIC [38]: > 64 µg/mL
